Results reported in article PMC2813745, “A novel inhibitor of the PI3K/Akt pathway based on the structure of inositol 1,3,4,5,6-pentakisphosphate” (British Journal of Cancer, 2010).

Experiments:
BTK = BTK (Homo sapiens, UniProt Q06187); test: SelectScreen kinase profiling: BTK; type: biochemical; conditions: [ATP] 25 µM
Procedure: (§1) Effect of the indicated compounds on the activity of various kinases was assessed by SelectScreen Kinase Profiling Service (Invitrogen-Life Technologies, Paisley, UK). Assays were performed using 1 μM of the tested compounds and ATP concentration as indicated in the corresponding tables. In the case of […] a screen using 10 μM of the compound was also carried out, as indicated in the corresponding table.

PDK1 = molecular target: T1, PDK1 (Homo sapiens, UniProt O15530); test: SelectScreen kinase profiling: PDK1; type: biochemical; conditions: for IC50: 10-point titration, [ATP] 100 μM
T1 sequence (O15530 1-556): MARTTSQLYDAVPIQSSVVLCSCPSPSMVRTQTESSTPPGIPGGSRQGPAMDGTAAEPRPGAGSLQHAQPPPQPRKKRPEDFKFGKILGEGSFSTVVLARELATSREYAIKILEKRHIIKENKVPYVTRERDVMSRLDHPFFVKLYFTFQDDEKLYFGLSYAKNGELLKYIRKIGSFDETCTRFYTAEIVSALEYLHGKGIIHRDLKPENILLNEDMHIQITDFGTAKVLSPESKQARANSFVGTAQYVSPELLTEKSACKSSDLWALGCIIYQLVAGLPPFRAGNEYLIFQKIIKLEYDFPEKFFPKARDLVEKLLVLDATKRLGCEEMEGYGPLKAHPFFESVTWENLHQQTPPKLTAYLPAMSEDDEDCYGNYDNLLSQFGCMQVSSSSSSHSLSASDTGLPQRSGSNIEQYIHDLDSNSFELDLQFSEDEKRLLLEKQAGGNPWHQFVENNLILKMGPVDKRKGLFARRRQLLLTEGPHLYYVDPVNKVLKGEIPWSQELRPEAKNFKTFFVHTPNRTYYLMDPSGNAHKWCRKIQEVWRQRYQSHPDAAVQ
Procedure: as §1

CDC42 BPA (MRCKA) = CDC42 BPA (MRCKA) (Homo sapiens, UniProt Q5VT25); test: SelectScreen kinase profiling: CDC42 BPA; type: biochemical; conditions: [ATP] 5 µM
Chain of CDC42 BPA (MRCKA) (Q5VT25 whole entry): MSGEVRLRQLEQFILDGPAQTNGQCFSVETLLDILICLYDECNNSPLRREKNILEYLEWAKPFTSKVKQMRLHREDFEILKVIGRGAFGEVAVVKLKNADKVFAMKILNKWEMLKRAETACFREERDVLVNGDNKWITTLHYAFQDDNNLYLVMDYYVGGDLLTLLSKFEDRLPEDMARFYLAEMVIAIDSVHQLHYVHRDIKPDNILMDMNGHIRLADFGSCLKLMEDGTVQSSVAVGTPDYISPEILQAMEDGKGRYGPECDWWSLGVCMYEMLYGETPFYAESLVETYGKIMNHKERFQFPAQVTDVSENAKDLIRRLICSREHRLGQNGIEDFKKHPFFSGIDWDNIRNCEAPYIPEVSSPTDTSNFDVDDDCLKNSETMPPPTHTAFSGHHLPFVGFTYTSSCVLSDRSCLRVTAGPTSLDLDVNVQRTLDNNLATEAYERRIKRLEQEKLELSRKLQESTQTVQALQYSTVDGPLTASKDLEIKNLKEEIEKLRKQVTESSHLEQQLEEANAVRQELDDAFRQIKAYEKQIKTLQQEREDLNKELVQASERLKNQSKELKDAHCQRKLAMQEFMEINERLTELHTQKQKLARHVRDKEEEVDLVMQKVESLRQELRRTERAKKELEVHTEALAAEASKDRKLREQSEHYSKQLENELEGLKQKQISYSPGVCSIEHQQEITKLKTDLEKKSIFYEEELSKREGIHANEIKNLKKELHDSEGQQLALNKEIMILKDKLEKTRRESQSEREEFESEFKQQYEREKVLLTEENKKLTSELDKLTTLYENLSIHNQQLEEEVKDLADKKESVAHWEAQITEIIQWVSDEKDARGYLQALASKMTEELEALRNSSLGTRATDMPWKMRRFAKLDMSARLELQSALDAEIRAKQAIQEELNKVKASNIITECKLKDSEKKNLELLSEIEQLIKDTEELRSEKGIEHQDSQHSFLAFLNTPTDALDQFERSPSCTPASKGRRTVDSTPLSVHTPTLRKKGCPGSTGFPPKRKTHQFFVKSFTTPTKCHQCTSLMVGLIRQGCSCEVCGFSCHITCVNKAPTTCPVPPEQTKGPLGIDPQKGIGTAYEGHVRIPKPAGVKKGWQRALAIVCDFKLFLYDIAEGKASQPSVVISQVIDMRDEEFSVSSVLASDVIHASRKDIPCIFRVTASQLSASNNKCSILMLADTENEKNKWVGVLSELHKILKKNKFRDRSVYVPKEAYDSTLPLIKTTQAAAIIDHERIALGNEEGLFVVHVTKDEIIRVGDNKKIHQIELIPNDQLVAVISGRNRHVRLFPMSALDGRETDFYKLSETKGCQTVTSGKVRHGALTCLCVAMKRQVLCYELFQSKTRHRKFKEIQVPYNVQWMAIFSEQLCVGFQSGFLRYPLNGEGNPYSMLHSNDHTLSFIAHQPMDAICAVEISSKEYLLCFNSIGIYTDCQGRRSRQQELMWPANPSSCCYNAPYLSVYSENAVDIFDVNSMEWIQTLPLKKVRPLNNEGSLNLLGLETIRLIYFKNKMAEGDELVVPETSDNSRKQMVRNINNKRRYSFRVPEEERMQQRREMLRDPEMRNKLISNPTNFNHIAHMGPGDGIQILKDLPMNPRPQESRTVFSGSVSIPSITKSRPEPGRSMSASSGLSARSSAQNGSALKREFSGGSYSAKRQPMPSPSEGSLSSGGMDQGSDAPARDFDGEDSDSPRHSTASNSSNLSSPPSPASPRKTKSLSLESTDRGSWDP
Procedure: as §1

CAMK2A (CaMKII alpha) = CAMK2A (CaMKII alpha) (Homo sapiens, UniProt Q9UQM7); test: SelectScreen kinase profiling: CAMK2A; type: biochemical; conditions: [ATP] 10 µM
Chain of CAMK2A (CaMKII alpha) (Q9UQM7 whole entry): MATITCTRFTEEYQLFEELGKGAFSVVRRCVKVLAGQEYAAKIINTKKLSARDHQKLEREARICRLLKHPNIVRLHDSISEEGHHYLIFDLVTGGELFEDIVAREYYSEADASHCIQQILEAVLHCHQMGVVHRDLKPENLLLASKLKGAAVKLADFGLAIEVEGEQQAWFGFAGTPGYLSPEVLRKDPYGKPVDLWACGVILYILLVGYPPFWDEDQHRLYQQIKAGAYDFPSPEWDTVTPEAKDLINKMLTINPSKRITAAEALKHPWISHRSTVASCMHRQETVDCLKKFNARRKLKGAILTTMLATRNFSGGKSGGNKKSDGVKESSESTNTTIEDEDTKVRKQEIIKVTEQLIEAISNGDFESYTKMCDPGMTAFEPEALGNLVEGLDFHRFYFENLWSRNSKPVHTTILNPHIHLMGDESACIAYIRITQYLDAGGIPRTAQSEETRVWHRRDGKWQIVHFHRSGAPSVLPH
Procedure: as §1

GRK5 = GRK5 (Homo sapiens, UniProt P34947); test: SelectScreen kinase profiling: GRK5; type: biochemical; conditions: 1 µM compound; [ATP] 5 µM
Procedure: as §1

PC3 xenografts = test: Anti-tumour activity assay on PC3 xenografts; type: in vivo, nude athymic CD-1 nu/nu mice; conditions: for tumour growth: 14 consecutive days
Procedure: Male nude athymic CD-1 nu/nu mice (8-weeks old) were obtained from Harlan (San Pietro al Natisone, Italy) and maintained under specific pathogen-free conditions with food and water provided ad libitum. The general health status of the animals was monitored daily. Procedure involving animals and their care were conducted in conformity with the institutional guidelines that are in compliance with national and international laws and policies.
Exponentially growing PC3 cells were harvested, washed twice and resuspended in PBS at a concentration of 2.5 × 10^7 cells ml^−1. A suspension of 5 × 10^6 PC3 cells was injected subcutaneously (s.c.) into the left flank of the recipient mice. When tumours reached a size of ∼70 mm^3 (approximately 15 days after tumour cell implant), mice were divided into seven groups (n=7). […] Control mice were treated with water in an equal volume. The diameters of s.c. growing tumours were measured with a caliper twice a week and the experiment was ended at day 28 after the implantation.
The volume of s.c. growing tumours was calculated by the formula: Tumour weight (mg)=(length × width^2)/2. Differences in s.c tumour growth between the treatment groups were evaluated with a one-way ANOVA followed by Fisher's test using the StatView statistical package (SAS Institute, Cary, NC, USA). The percentage of tumour growth was calculated as T/C%=(RTV-treated animals/RTV-control animals) × 100, where RTV was the mean relative tumour volume calculated as RTV=Vt/V0. Vt was the tumour volume on the day of measurement and V0 was the tumour volume at the beginning of the treatment. The percentage of tumour weight inhibition (TWI%) was calculated using the formula: TWI%=100–T/C%. The log cell kill (LCK) was calculated using the formula: LCK=T−C/3.32 × Td, where T−C is the tumour growth delay calculated as the difference in median time (in days) required for the tumours in the treatment (T) and control group (C) to reach a predetermined size (i.e., 1000 mg). Td is the tumour volume doubling time in days, determined in the exponential growth phase of the control group from a best-fit straight line. […]
The inositol compounds (12.5–25–50 mg kg^−1 day^−1) and vehicle (water) were given daily by intraperitoneal (i.p.) injections for 14 consecutive days (days 15–28). Tumour size was assessed twice weekly. (A, B) Tumour growth in 2-O-Bn-InsP5-treated mice (A) and InsP5-treated mice (B) compared with control group measured for the duration of the experiment. Results are expressed as mean±s.e. […] The percentage of tumour weight inhibition (TWI%), the tumour growth delay (T−C) and the log cell kill (LCK) were calculated as described in the MATERIALS AND METHODS section. […] Phosphorylation of Akt at its residues Ser473 and Thr308 was assessed by using specific antibodies. […]

MAPK14 (p38α) = MAPK14 (p38α) (Homo sapiens, UniProt Q16539); test: SelectScreen kinase profiling: MAPK14; type: biochemical; conditions: 1 µM compound; [ATP] 100 µM
Chain of MAPK14 (p38α) (Q16539 whole entry): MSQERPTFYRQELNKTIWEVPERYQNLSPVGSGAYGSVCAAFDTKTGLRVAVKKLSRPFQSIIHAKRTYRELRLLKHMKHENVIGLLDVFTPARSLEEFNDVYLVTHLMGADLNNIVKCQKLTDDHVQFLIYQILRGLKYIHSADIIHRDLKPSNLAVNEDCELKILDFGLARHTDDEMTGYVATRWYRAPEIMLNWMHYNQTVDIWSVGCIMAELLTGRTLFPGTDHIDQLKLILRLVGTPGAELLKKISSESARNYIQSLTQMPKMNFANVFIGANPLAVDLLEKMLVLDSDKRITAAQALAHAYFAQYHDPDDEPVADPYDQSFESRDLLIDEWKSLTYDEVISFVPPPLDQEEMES
Procedure: as §1

AMPK A2/B1/G1 = AMPK A2/B1/G1 (Homo sapiens, UniProt P54646); test: SelectScreen kinase profiling: AMPK A2/B1/G1; type: biochemical; conditions: 1 µM compound; [ATP] 150 µM
Chain of AMPK A2/B1/G1 (P54646 whole entry): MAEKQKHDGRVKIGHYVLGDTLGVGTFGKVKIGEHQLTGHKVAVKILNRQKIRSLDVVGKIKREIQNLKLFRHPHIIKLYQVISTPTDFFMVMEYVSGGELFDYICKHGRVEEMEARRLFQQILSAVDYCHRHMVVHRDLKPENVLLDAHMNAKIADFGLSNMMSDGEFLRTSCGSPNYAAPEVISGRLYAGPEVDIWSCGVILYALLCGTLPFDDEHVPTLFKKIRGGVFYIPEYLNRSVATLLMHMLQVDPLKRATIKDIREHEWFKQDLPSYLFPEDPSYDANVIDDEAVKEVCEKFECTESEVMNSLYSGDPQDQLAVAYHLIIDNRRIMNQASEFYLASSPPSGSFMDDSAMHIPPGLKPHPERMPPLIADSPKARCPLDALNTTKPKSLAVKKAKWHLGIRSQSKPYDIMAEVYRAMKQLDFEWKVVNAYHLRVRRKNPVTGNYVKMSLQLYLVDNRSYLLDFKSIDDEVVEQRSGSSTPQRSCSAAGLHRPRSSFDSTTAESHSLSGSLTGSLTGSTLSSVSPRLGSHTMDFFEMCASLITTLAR
Chain of AMPK A2/B1/G1 (Q9Y478 whole entry partner): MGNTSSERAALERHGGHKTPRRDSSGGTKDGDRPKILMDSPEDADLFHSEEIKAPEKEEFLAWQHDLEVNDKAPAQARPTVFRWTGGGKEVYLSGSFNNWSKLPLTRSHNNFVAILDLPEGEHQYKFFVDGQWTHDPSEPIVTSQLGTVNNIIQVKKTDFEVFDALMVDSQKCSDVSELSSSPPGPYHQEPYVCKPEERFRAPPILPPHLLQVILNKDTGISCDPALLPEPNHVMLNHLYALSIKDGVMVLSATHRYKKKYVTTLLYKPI
Chain of AMPK A2/B1/G1 (P54619 whole entry partner): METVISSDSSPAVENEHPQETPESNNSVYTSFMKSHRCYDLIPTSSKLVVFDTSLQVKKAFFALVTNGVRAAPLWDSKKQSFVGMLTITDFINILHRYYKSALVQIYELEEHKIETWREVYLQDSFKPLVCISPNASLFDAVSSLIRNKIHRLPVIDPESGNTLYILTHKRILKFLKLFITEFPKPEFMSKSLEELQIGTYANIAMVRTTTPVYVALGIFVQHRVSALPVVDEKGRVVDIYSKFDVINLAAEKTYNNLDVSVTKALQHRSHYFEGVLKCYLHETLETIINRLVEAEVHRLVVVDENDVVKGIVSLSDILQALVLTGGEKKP
Procedure: as §1

ROCK1 = ROCK1 (Homo sapiens, UniProt Q13464); test: SelectScreen kinase profiling: ROCK1; type: biochemical; conditions: [ATP] 5 µM
Procedure: as §1

ABL1 = ABL1 (Homo sapiens, UniProt P00519); test: SelectScreen kinase profiling: ABL1; type: biochemical; conditions: [ATP] 10 µM
Procedure: as §1

FRAP1 (mTOR) = FRAP1 (mTOR) (Homo sapiens, UniProt P42345); test: SelectScreen kinase profiling: mTOR; type: biochemical
Procedure: as §1

ITK = ITK (Homo sapiens, UniProt Q08881); test: SelectScreen kinase profiling: ITK; type: biochemical; conditions: [ATP] 5 µM
Chain of ITK (Q08881 whole entry): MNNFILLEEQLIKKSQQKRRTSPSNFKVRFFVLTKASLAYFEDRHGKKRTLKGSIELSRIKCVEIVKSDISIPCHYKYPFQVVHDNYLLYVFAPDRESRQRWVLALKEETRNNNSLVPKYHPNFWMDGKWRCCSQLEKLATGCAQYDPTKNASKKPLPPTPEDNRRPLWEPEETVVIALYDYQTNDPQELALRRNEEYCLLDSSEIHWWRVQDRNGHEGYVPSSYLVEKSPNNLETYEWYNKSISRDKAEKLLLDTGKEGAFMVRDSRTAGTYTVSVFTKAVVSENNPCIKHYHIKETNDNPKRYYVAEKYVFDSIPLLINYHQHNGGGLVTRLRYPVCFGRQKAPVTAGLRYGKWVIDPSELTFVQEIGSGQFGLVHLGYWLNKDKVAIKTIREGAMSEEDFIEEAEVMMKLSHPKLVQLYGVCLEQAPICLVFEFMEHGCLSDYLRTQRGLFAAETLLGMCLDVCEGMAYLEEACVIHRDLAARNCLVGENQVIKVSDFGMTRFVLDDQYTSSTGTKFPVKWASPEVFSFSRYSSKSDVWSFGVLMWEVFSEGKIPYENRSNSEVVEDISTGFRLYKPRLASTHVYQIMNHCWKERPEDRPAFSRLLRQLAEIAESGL
Procedure: as §1

CDK7/cyclin H/MNAT1 = CDK7/cyclin H/MNAT1 (Homo sapiens, UniProt P50613); test: SelectScreen kinase profiling: CDK7/cyclin H/MNAT1; type: biochemical; conditions: [ATP] 150 µM
Procedure: as §1

[1] = 1 µM compound, [ATP] 100 µM, single point

Chain of BTK (Q06187 whole entry): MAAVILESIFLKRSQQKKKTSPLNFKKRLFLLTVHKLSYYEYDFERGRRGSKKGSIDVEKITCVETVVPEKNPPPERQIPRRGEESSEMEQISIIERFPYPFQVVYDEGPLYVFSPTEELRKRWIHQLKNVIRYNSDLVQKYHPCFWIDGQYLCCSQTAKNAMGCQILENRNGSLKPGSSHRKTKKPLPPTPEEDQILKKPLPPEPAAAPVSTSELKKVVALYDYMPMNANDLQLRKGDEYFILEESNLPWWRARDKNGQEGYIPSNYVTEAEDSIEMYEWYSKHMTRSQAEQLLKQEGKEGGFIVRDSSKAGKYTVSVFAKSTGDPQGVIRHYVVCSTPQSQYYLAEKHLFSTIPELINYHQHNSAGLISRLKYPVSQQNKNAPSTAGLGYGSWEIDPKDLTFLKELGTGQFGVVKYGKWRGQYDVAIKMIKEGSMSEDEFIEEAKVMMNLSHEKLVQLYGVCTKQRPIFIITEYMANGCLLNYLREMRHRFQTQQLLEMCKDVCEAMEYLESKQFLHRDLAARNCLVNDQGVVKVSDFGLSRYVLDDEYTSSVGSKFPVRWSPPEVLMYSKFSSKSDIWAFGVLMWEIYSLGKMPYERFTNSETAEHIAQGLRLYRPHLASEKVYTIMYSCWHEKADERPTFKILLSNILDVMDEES

`O=P(O)(O)OC1C(OCc2ccccc2)C(OP(=O)(O)O)C(OP(=O)(O)O)C(OP(=O)(O)O)C1OP(=O)(O)O` (stereo not shown) [2-O-Bn-InsP5, 2-O-benzyl-myo-inositol 1,3,4,5,6-pentakisphosphate] was tested, and the inhibition at 1 µM (BTK; 1 µM compound) was 5%, the inhibition at 1 µM (PDK1; [1]) was 79% and the IC50 (PDK1) was 26.5 nM. The inhibition at 1 µM (CDC42 BPA (MRCKA); 1 µM compound) was 17%, the inhibition at 1 µM (CAMK2A (CaMKII alpha); 1 µM compound) was -2% and the inhibition at 1 µM (GRK5) was 34%. The “T-C (tumour growth delay)” value (PC3 xenografts; 50 mg kg^-1, i.p., qdx15) was roughly 9 days, the tumour growth (PC3 xenografts; 50 mg kg^−1 daily i.p., significant from day 22) was “strong reduction in tumour growth” and the tumour growth (PC3 xenografts; 12.5 and 25 mg kg^−1 daily i.p., vs untreated mice) was “clearly decreased the growth of tumours”. The inhibition at 1 µM (MAPK14 (p38α)) was 30%, the inhibition at 1 µM (AMPK A2/B1/G1) was 25% and the inhibition at 1 µM (ROCK1; 1 µM compound) was 7%. The inhibition at 1 µM (ABL1; 1 µM compound) was 0%, the inhibition at 1 µM (FRAP1 (mTOR); 1 µM compound, [ATP] 10 µM) was 48% and the IC50 (FRAP1 (mTOR); 10-point titration, [ATP] 10 μM) was 1300 nM. For the same molecule, the inhibition at 1 µM (ITK; 1 µM compound) was -11% and the inhibition at 1 µM (CDK7/cyclin H/MNAT1; 1 µM compound) was -2%.
`O=P(O)(O)OC1C(O)C(OP(=O)(O)O)C(OP(=O)(O)O)C(OP(=O)(O)O)C1OP(=O)(O)O` (stereo not shown) [InsP5, inositol 1,3,4,5,6-pentakisphosphate] was tested, and the inhibition at 10 µM (BTK; 10 µM compound) was 8%, the “% Inhibition Mean” value (PDK1; [1]) was 68% and the inhibition at 1 µM (PDK1; [1]) was 71%. It also gave an inhibition at 10 µM (PDK1; 10 µM compound, [ATP] 100 µM) of 70%, an IC50 (PDK1) of 613 nM and an inhibition at 10 µM (CDC42 BPA (MRCKA); 10 µM compound) of 0%. The inhibition at 10 µM (CAMK2A (CaMKII alpha); 10 µM compound) was 17%, the inhibition at 1 µM (GRK5) was 37% and the tumour growth (PC3 xenografts; up to 50 mg kg^−1 daily i.p.) was “no effect”. For the same molecule, the inhibition at 1 µM (MAPK14 (p38α)) was 23%, the inhibition at 1 µM (AMPK A2/B1/G1) was 7% and the inhibition at 10 µM (ROCK1; 10 µM compound) was 20%. For the same molecule, the inhibition at 10 µM (ABL1; 10 µM compound) was -16%, the “% Inhibition Mean” value (FRAP1 (mTOR); 10 µM compound, [ATP] 10 µM) was “did not inhibit mTOR” and the inhibition at 10 µM (FRAP1 (mTOR); 10 µM compound, [ATP] 10 µM) was 16%. It also gave an inhibition at 10 µM (ITK; 10 µM compound) of 6% and an inhibition at 10 µM (CDK7/cyclin H/MNAT1; 10 µM compound) of 0%.
